Laboratory results reported in ChEMBL document CHEMBL3046067, “Synthesis of some novel 3,5-disubstituted 1,3,4-oxadiazole derivatives and anticancer activity on EAC animal model” (2011).
Calls of active or inactive are those of the source. No cut-off for these calls is given here.

Key:
[1] = Antitumor activity against Mus musculus (mouse) EAC xenografted in Mus musculus Swiss albino (mouse) assessed as non-viable cells at 20 mg/kg, ip qd for 7 days relative to control; assay type: functional, Ehrlich; details: route intraperitoneal
Mus musculus [2] = assay: Antitumor activity against Mus musculus (mouse) EAC xenografted in Mus musculus Swiss albino (mouse) assessed as increase in median life span at 20 mg/kg, ip qd for 7 days relative to control; assay type: functional; details: 168 h, route intraperitoneal
[3] = Antitumor activity against Mus musculus (mouse) EAC xenografted in Mus musculus Swiss albino (mouse) assessed as viable cells at 20 mg/kg, ip qd for 7 days relative to control; assay type: functional, Ehrlich; details: route intraperitoneal
Mus musculus [4] = assay: Antitumor activity against Mus musculus (mouse) EAC xenografted in Mus musculus Swiss albino (mouse) assessed as increase in average life span at 20 mg/kg, ip qd for 7 days relative to control; assay type: functional; details: 168 h, route intraperitoneal
Mus musculus [5] = assay: Antitumor activity against Mus musculus (mouse) EAC xenografted in Mus musculus Swiss albino (mouse) assessed as increase in median life span at 50 mg/kg, ip qd for 7 days relative to control; assay type: functional; details: 168 h, route intraperitoneal, read-out: Survival
Mus musculus [6] = assay: Antitumor activity against Mus musculus (mouse) EAC xenografted in Mus musculus Swiss albino (mouse) assessed as restoration of RBC count at 50 mg/kg, ip qd for 7 days; assay type: functional, organism-based; set-up: dose 50 mg/kg
[7] = Antitumor activity against Mus musculus (mouse) EAC xenografted in Mus musculus Swiss albino (mouse) assessed as viable cells at 50 mg/kg, ip qd for 7 days relative to control; assay type: functional, Ehrlich; details: route intraperitoneal
[8] = Antitumor activity against Mus musculus (mouse) EAC xenografted in Mus musculus Swiss albino (mouse) assessed as inhibition of tumor formation at 50 mg/kg, ip qd for 7 days relative to control; assay type: functional; details: Ehrlich, 168 h, route intraperitoneal
Mus musculus [9] = assay: Antitumor activity against Mus musculus (mouse) EAC xenografted in Mus musculus Swiss albino (mouse) assessed as restoration of hemoglobin level at 50 mg/kg, ip qd for 7 days; assay type: functional, organism-based; set-up: dose 50 mg/kg
[10] = Antitumor activity against Mus musculus (mouse) EAC xenografted in Mus musculus Swiss albino (mouse) assessed as non-viable cells at 50 mg/kg, ip qd for 7 days relative to control; assay type: functional, Ehrlich; details: route intraperitoneal
Mus musculus [11] = assay: Antitumor activity against Mus musculus (mouse) EAC xenografted in Mus musculus Swiss albino (mouse) assessed as increase in average life span at 50 mg/kg, ip qd for 7 days relative to control; assay type: functional; details: 168 h, route intraperitoneal, read-out: Survival
Mus musculus [12] = assay: Antitumor activity against Mus musculus (mouse) EAC xenografted in Mus musculus Swiss albino (mouse) assessed as restoration of WBC count at 50 mg/kg, ip qd for 7 days; assay type: functional, organism-based; set-up: dose 50 mg/kg

Compound	Activity [1] [%]	survival at 20 mg/kg (Mus musculus [2]) [%]	Activity [3] [%]	survival at 20 mg/kg (Mus musculus [4]) [%]	Increase in median life span at 50 mg/kg (Mus musculus [5]) [%]	Activity (Mus musculus [6])	Activity [7] [%]	inhibition in vivo at 50 mg/kg [8] [%]	Activity (Mus musculus [9])	Activity [10] [%]	percent increase in average life span at 50 mg/kg (Mus musculus [11]) [%]	Activity (Mus musculus [12])
O=c1[nH]cc(F)c(=O)[nH]1 [FLUOROURACIL]	85.17	90.8	14.83	92.7								
S=c1oc(-c2ccc(Cl)cc2Cl)nn1CNc1ccccn1					47.7	Active	27.33	52.2	Active	72.67	53.6	Active
Oc1ccc(-c2nn(CNc3ccccn3)c(=S)o2)cc1					76.9	Active	22.5	73.9	Active	77.5	80.7	Active
O=[N+]([O-])c1ccc(-c2nn(CNc3ccccc3)c(=S)o2)cc1					44.6	Active	33.5	56.5	Active	66.5	46.4	Active
Cc1ccc(-c2nn(CNc3ccccn3)c(=S)o2)cc1					73.8	Active	24.83	56.5	Active	75.17	74	Active
O=[N+]([O-])c1ccc(-c2nn(CNc3ccccn3)c(=S)o2)cc1					36.9	Active	36.83	60.8	Active	63.17	38.5	Active
